Test results published in US11066421B1, “Synthetic cinchona alkaloids against cancer” (Ares Pharmaceuticals, LLC, priority 2021, dated 2021).

Key:
MOLT-3 = experiment: MTT cytotoxicity assay, MOLT-3; assay type: cell-based, human; settings: 48 h, read-out: IC50 against MOLT-3
Experimental: (§1) Human B-lineage acute lymphoblastic leukemia (ALL) cell line NALM-6 and T-lineage ALL/lymphoma cell line MOLT-3 were obtained from American Type Culture Collection (Manassas, Va.). Cell lines were propagated in RPMI 1640 supplemented with 10% FCS, 4 mM glutamine, 100 units/ml penicillin G, and […] streptomycin sulfate. All tissue culture reagents were obtained from Life Technologies Inc. (Life Technologies, Inc., Gaithersburg, Md.). Cell lines were cultivated for a minimum of two passages after thawing prior to experimentation.
(§2) The cytotoxicity of the compounds were tested against human ALL cell lines using MTT assays (Roche Molecular Biochemicals, Indianapolis, Ind.), as described previously R. K. Narla et al., 1998, Clin Cancer Res 4:1405-14). Briefly, exponentially growing tumor cells were seeded into a 96-well plate at a density of 4×10^4 cells/well and incubated in medium containing the cinchona alkaloid compounds at concentrations ranging from 0.7 to 100 μM for 48 h at 37° C. in a humidified 5% CO2 atmosphere. To each well, 10 μL of MTT (final concentration, 0.5 mg/ml) was added, and the plates were incubated at 37° C. for 4 h to allow MTT to form formazan crystals by reacting with metabolically active cells. The formazan crystals were solubilized overnight at 37° C. in a solution containing 10% SDS and 0.01 M HCl. The absorbance of each well was measured in a microplate reader (Labsystems) at 540 nm and a reference wavelength of 690 nm. To translate the A540 values into the number of live cells in each well, the A540 values were compared to those on standard A540 versus cell number curves generated for each cell line. The percentage of survival was calculated using the formula: % survival=[Live cell number (test)/Live cell number (control)]×100. The IC50 values were calculated by nonlinear regression analysis using the graphed Prism Software version 2.0 (GraphPad Software, Inc., San Diego, Calif.).

NALM-6 = experiment: MTT cytotoxicity assay, NALM-6; assay type: cell-based, human; settings: 48 h, read-out: IC50 against NALM-6
Experimental: as §1, §2

[1] = system: Lewis Lung Carcinoma Cells (LL2); experiment: Syngeneic mouse model of K-Ras mutant NSCLC; assay type: in vivo
Experimental: Lewis Lung Carcinoma Cells (LL2) were purchased from ATCC. These murine NSCLC cells derived from C57BL/6 mice have a heterozygous Kras^G12C mutation (H. Y. Li et al., 2017, Cancer Immunol. Res. 5:767-77; B. Deskin et al., 2020, Translational Oncol. 13:135-45). Eight-9 weeks old, male C57/BL6 mice were inoculated with 1×10^6 LL2 cells in 200 μL PBS that were injected subcutaneously in the right flank. Treatments were initiated immediately after inoculation with LL/2 cells. Control mice were treated with intraperitoneal injections of 50 μL vehicle (DMSO), whereas test mice were treated with either AP-1 or AP-8 at the specified dose levels. Treatments were administered twice daily, 5 days per week for a total of 2 weeks. The clinical predictive value of this mouse model is well established (Kellar A, Egan C, Morris D. Preclinical Murine Models for Lung Cancer: Clinical Trial Applications. Biomed Research International Volume 2015|Article ID 621324|https://doi.org/10.1155/2015/621324).
In the 1st experiment, mice were treated twice daily with intraperitoneal injections of vehicle (50 μL DMSO) (N=10) or AP-1 (125 μg˜5 mg/kg in 50 μL DMSO) (N=7) according to a 5 days on 2 days off weekly schedule for 4 weeks. Mice were monitored daily until tumors became visible on and tumor growth rates were compared between day 16 and day 20 by measuring the size of the tumors with a caliper in three dimensions. Tumor size was expressed as tumor volume in cubic millimeters (mm3). Tumor volumes were calculated using the formula for the volume of a prolate spheroid, V=4/3×3.14×length/2×width/2×depth/2. […] The depicted Whisker plots represent the median and values (Min to Max. Shown all points) for the tumor volume on day 16 (FIG. 11A), day 18 (FIG. 11 FIG. 11B) and day 20 (C), and fold-growth in 48 hours (FIG. 11D; day 18 size: day 16 size) measured in tumors from mice in each group. […] Statistical significance between the two groups is shown by the depicted p-values above the plots were computed using an independent samples T-test.
Similarly, in the 2nd experiment, C57BL/6 mice were inoculated subcutaneously with LL2 cells (1×10^6/inoculum, volume: 200 μL) in the right flank. Mice were treated twice daily with intraperitoneal injections of vehicle (50 μL DMSO) (N=10) or AP-1 (100 μg˜4 mg/kg in 50 μL DMSO) (N=20) according to a 5 days on 2 days off weekly schedule for 2 weeks. Mice were monitored daily until tumors became visible on day 10. Tumor growth was assessed on day 10 and day 14 by measuring the size of the tumors with a caliper in three dimensions. Tumor size was expressed as tumor volume in cubic millimeters (mm^3). Tumor volumes were calculated using the formula for the volume of a prolate spheroid, V=4/3×3.14×length/2×width/2×depth/2. […]
In the 3rd experiment, mice were treated twice daily with intraperitoneal injections of vehicle (50 μL DMSO) (N=10) or AP-1 (125 μg˜5 mg/kg in 50 μL DMSO) (N=18) according to a 5 days on 2 days off weekly schedule for 4 weeks. Mice were monitored daily until tumors became visible on day 13. Tumor growth was re-assessed every other day between day 13 and day 29 by measuring the size of the tumors with a caliper in three dimensions. Tumor size was expressed as tumor volume in cubic millimeters (mm^3). Tumor volumes were calculated using the formula for the volume of a prolate spheroid, V=4/3×3.14×length/2×width/2×depth/2. […]

Molecule | IC50 (MOLT-3) | IC50 (NALM-6) | fold-growth in 48 hours (day 18 size: day 16 size) ([1]; 1st experiment, 5 mg/kg i.p. twice daily) | average tumor volume versus vehicle ([1]; 1st experiment, 5 mg/kg i.p. twice daily, day 16 to day 20) | average tumor volume versus vehicle ([1]; 2nd experiment, 4 mg/kg i.p. twice daily, day 10 and day 14) | average tumor volume versus vehicle ([1]; 3rd experiment, 5 mg/kg i.p. twice daily, day 13 to day 29) | average tumor volume versus vehicle ([1]; 2 mg/kg i.p. twice daily, day 14 to day 25)
C=CC1CN2CCC1CC2C(Oc1cc(OC(c2ccnc3ccccc23)C2CC3CCN2CC3C=C)nc(OC(c2ccnc3ccccc23)C2CC3CCN2CC3C=C)n1)c1ccnc2ccccc12 (stereo not shown) [AP-1, 2,4,6-Tri(9-O-cinchoninyl)pyrimidine] | 6.7 µM | 3.4 µM | significantly reduced the rapid growth rate of the LL2 tumors | remained significantly smaller than the average tumor volume in vehicle-treated control mice | remained significantly smaller than the average tumor volume in vehicle-treated control mice | remained significantly smaller than the average tumor volume in vehicle-treated control mice | –
2,4,6-Tri (9-O-dihydrocinchoninyl)pyrimidine [AP-5] | – | 1.7 µM | – | – | – | – | –
CCC1CN2CCC1CC2C(Oc1cc(OC(c2ccnc3ccc(OC)cc23)C2CC3CCN2CC3CC)nc(OC(c2ccnc3ccc(OC)cc23)C2CC3CCN2CC3CC)n1)c1ccnc2ccc(OC)cc12 (stereo not shown) [AP-8, 2,4,6-Tri (9-O-dihydroquinidinyl)pyrimidine] | 5.2 µM | 3.7 µM | – | – | – | – | remained significantly smaller than the average tumor volume in vehicle-treated control mice
